Experimental findings from PubChem BioAssay AID504681 (National Center for Advancing Translational Sciences (NCATS), 2011) are described below.

This series relates to PBS pH 7.4 stability, LC-MS/MS, 48 h. The experiment in a line: Inhibitors of Human alpha-Glucosidase: PBS Stability Profiling. The following applies: at 20 µM; hits give high values. The text has this: Alpha-glucosidase is responsible for the hydrolysis of terminal, non-reducing 1,4-linked alpha-D-glucose residues, which releases alpha-D-glucose. It is a lysosomal hydrolase that is required for the degradation of a small percentage (1-3%) of cellular glycogen in humans. Deficiency of this enzyme results in glycogen-storage disease type II (GSDII), also referred to as Pompe disease, an autosomal recessive disorder. Structurally normal glycogen is accumulated in the lysosomes and cytoplasm in affected patients, primarily in muscle tissues. Excessive glycogen storage within lysosomes may interrupt normal functioning of other organelles and leads to cellular injury. In turn, this leads to enlargement and dysfunction of the entire organ involved (eg: cardiomyopathy and muscle weakness). The stability of the lead compound in PBS buffer is tested because this parameter has a significant impact on many ADME-concerned properties of drugs, such as uptake, distribution, transport, and eventually bioavailability. NIH Chemical Genomics Center [NCGC] NIH Molecular Libraries Probe Production Centers Network [MLPCN] […]
20uM of compound is incubated in PBS buffer at pH 7.4 at […]; the reference compound is procaine. Compounds are incubated at 37 deg C for the pre-determined time periods and the when aliquots are removed. Samples are analyzed with LC-MS/MS.

On to `CC(=O)c1ccc(N2CCN(S(=O)(=O)c3ccc4c(c3)CC(=O)N4)CC2)cc1`, for which the percent remaining was 100%.
